Measured values published in PubChem BioAssay (NCI).
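Exposure lasted 48 hours, with cells grown in 96-well plates and compounds tested at five concentrations. The concentration for full growth arrest is given as TGI.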

Tests used:
DMS 114 small cell lung = assay: growth of human tumour cells (NCI), 48 h
DMS 273 small cell lung = assay: growth of human tumour cells (NCI), 48 h

COc1cc2c(cc1OC)C(CC1=C(c3ccccc3)CN3CCc4cc(OC)c(OC)cc4C3C1)NCC2 (configuration not stated)
TGI (DMS 114 small cell lung): 30.3 µM
TGI (DMS 273 small cell lung): 31.6 µM
